Experimental data: ChEMBL document CHEMBL4145553, “Design, synthesis, and biological evaluation of novel amide and hydrazide based thioether analogs targeting Histone deacteylase (HDAC) enzymes” (Eur J Med Chem, 2018)
Active and inactive are the calls of the source. The rule behind the calls is not given here.

Experiments:
SW-620 [1] = experiment: Growth inhibition of human SW620 cells incubated for 48 hrs by sulforhodamine B assay; type: functional; settings: SW-620, 48 h
CCRF-CEM = experiment: Growth inhibition of human CCRF-CEM cells assessed as cell growth at 10^-6 M incubated for 48 hrs by sulforhodamine B assay relative to control; type: functional; settings: read-out: Activity
M14 = experiment: Growth inhibition of human M14 cells assessed as cell growth at 10^-7 M incubated for 48 hrs by sulforhodamine B assay relative to control; type: functional; settings: M14, 48 h, read-out: Activity
UACC-257 = experiment: Growth inhibition of human UACC257 cells assessed as cell growth at 10^-7 M incubated for 48 hrs by sulforhodamine B assay relative to control; type: functional; settings: UACC-257, 48 h, read-out: Activity
CAKI-1 = experiment: Growth inhibition of human Caki1 cells assessed as cell growth at 10^-8 M incubated for 48 hrs by sulforhodamine B assay relative to control; type: functional; settings: CAKI-1, 48 h, read-out: Activity
K562 = experiment: Growth inhibition of human K562 cells assessed as cell growth at 10^-5 M incubated for 48 hrs by sulforhodamine B assay relative to control; type: functional; settings: K562, 48 h, read-out: Activity
ACHN = experiment: Growth inhibition of human ACHN cells assessed as cell growth at 10^-4 M incubated for 48 hrs by sulforhodamine B assay relative to control; type: functional; settings: read-out: Activity
LOX IMVI = experiment: Growth inhibition of human LOXIMVI cells assessed as cell growth at 10^-6 M incubated for 48 hrs by sulforhodamine B assay relative to control; type: functional; settings: read-out: Activity
SK-MEL-2 [2] = experiment: Growth inhibition of human SK-MEL-2 cells assessed as cell growth at 10^-7 M incubated for 48 hrs by sulforhodamine B assay relative to control; type: functional; settings: SK-MEL-2, 48 h, read-out: Activity
HOP-62 [3] = experiment: Growth inhibition of human HOP62 cells assessed as cell growth at 10^-7 M incubated for 48 hrs by sulforhodamine B assay relative to control; type: functional; settings: HOP-62, 48 h, read-out: Activity
A498 = experiment: Growth inhibition of human A498 cells assessed as cell growth at 10^-8 M incubated for 48 hrs by sulforhodamine B assay relative to control; type: functional; settings: A498, 48 h, read-out: Activity
HT-29 [4] = experiment: Growth inhibition of human HT-29 cells assessed as cell growth at 10^-5 M incubated for 48 hrs by sulforhodamine B assay relative to control; type: functional; settings: HT-29, 48 h, read-out: Activity
HL-60 = experiment: Antiproliferative activity against human HL60 cells after 24 hrs by MTT assay; type: functional; settings: for GI50: Homo sapiens, HL-60, 24 h
HT-29 [5] = experiment: Growth inhibition of human HT-29 cells assessed as cell growth at 10^-6 M incubated for 48 hrs by sulforhodamine B assay relative to control; type: functional; settings: HT-29, 48 h, read-out: Activity
OVCAR-4 = experiment: Growth inhibition of human OVCAR4 cells assessed as cell growth at 10^-5 M incubated for 48 hrs by sulforhodamine B assay relative to control; type: functional; settings: OVCAR-4, 48 h, read-out: Activity
HT-29 [6] = experiment: Growth inhibition of human HT-29 cells assessed as cell growth at 10^-7 M incubated for 48 hrs by sulforhodamine B assay relative to control; type: functional; settings: HT-29, 48 h, read-out: Activity
NCI-H23 = experiment: Growth inhibition of human NCI-H23 cells assessed as cell growth at 10^-7 M incubated for 48 hrs by sulforhodamine B assay relative to control; type: functional; settings: NCI-H23, 48 h, read-out: Activity
SK-MEL-2 [7] = experiment: Growth inhibition of human SK-MEL-2 cells assessed as cell growth at 10^-8 M incubated for 48 hrs by sulforhodamine B assay relative to control; type: functional; settings: SK-MEL-2, 48 h, read-out: Activity
MCF7 [8] = experiment: Growth inhibition of human MCF7 cells assessed as cell growth at 10^-7 M incubated for 48 hrs by sulforhodamine B assay relative to control; type: functional; settings: MCF7, 48 h, read-out: Activity
MDA-MB-435 [9] = experiment: Growth inhibition of human MDA-MB-435 cells assessed as cell growth at 10^-8 M incubated for 48 hrs by sulforhodamine B assay relative to control; type: functional; settings: MDA-MB-435, 48 h, read-out: Activity
MOLT-4 = experiment: Growth inhibition of human MOLT4 cells assessed as cell growth at 10^-5 M incubated for 48 hrs by sulforhodamine B assay relative to control; type: functional; settings: MOLT-4, 48 h, read-out: Activity
SW-620 [10] = experiment: Growth inhibition of human SW620 cells assessed as cell growth at 10^-4 M incubated for 48 hrs by sulforhodamine B assay relative to control; type: functional; settings: SW-620, 48 h, read-out: Activity
IGROV-1 = experiment: Growth inhibition of human IGROV1 cells incubated for 48 hrs by sulforhodamine B assay; type: functional; settings: IGROV-1, 48 h
HOP-62 [11] = experiment: Growth inhibition of human HOP62 cells assessed as cell growth at 10^-5 M incubated for 48 hrs by sulforhodamine B assay relative to control; type: functional; settings: HOP-62, 48 h, read-out: Activity
MDA-MB-435 [12] = experiment: Growth inhibition of human MDA-MB-435 cells assessed as cell growth at 10^-7 M incubated for 48 hrs by sulforhodamine B assay relative to control; type: functional; settings: MDA-MB-435, 48 h, read-out: Activity
UACC-62 = experiment: Growth inhibition of human UACC62 cells assessed as cell growth at 10^-4 M incubated for 48 hrs by sulforhodamine B assay relative to control; type: functional; settings: UACC-62, 48 h, read-out: Activity
MCF7 [13] = experiment: Growth inhibition of human MCF7 cells assessed as cell growth at 10^-4 M incubated for 48 hrs by sulforhodamine B assay relative to control; type: functional; settings: MCF7, 48 h, read-out: Activity
SK-OV-3 = experiment: Growth inhibition of human SKOV3 cells assessed as cell growth at 10^-7 M incubated for 48 hrs by sulforhodamine B assay relative to control; type: functional; settings: SK-OV-3, 48 h, read-out: Activity
MDA-MB-435 [14] = experiment: Induction of apoptosis in human MDA-MB-435 cells assessed as increase in caspase-3 expression by qRT-PCR method; type: functional, cell-based
NCI-H460 = experiment: Growth inhibition of human NCI-H460 cells assessed as cell growth at 10^-6 M incubated for 48 hrs by sulforhodamine B assay relative to control; type: functional; settings: NCI-H460, 48 h, read-out: Activity
HL-60(TB) = experiment: Growth inhibition of human HL-60(TB) cells assessed as cell growth at 10^-8 M incubated for 48 hrs by sulforhodamine B assay relative to control; type: functional; settings: HL-60, 48 h, read-out: Activity
OVCAR-8 = experiment: Growth inhibition of human OVCAR8 cells assessed as cell growth at 10^-6 M incubated for 48 hrs by sulforhodamine B assay relative to control; type: functional; settings: OVCAR-8, 48 h, read-out: Activity
[15] = read-out: LC50 (the source's name)
[16] = read-out: pLC50 (the source's name) (converted)

Structure (SMILES): CCS/C(Nc1ccccc1)=C(\C#N)C(=O)N/N=C\c1ccc(Cl)cc1Cl
- GI50 (SW-620 [1]; read-out: GI50): 4.65 µM
- CC50 (SW-620 [1]; [15]): > 100 µM
- TGI (SW-620 [1]; read-out: TGI): > 100 µM
- GI50 (SW-620 [1]; read-out: pGI50 (converted)): 4.68 µM
- CC50 (SW-620 [1]; [16]): > 100 µM
- TGI (SW-620 [1]; read-out: pTGI): > 100 µM
- growth at 1 µM (CCRF-CEM): 82%
- growth at 0.1 µM (M14): 93%
- growth at 0.1 µM (UACC-257): 94%
- growth at 0.01 µM (CAKI-1): 94%
- growth at 10 µM (K562): 10%
- growth at 100 µM (ACHN): 29%
- growth at 1 µM (LOX IMVI): 86%
- growth at 0.1 µM (SK-MEL-2 [2]): 101%
- growth at 0.1 µM (HOP-62 [3]): 85%
- growth at 0.01 µM (A498): 91%
- growth at 10 µM (HT-29 [4]): 11%
- Activity (HL-60): Dose-dependent effect
- GI50 (HL-60): 3.2 µM
- growth at 1 µM (HT-29 [5]): 101%
- growth at 10 µM (OVCAR-4): 42%
- growth at 0.1 µM (HT-29 [6]): 101%
- growth at 0.1 µM (NCI-H23): 97%
- growth at 0.01 µM (SK-MEL-2 [7]): 106%
- growth at 0.1 µM (MCF7 [8]): 89%
- growth at 0.01 µM (MDA-MB-435 [9]): 95%
- growth at 10 µM (MOLT-4): 22%
- growth at 100 µM (SW-620 [10]): 25%
- GI50 (IGROV-1; read-out: GI50): 6.46 µM
- CC50 (IGROV-1; [15]): > 100 µM
- TGI (IGROV-1; read-out: TGI): > 100 µM
- GI50 (IGROV-1; read-out: pGI50 (converted)): 6.46 µM
- CC50 (IGROV-1; [16]): > 100 µM
- TGI (IGROV-1; read-out: pTGI): > 100 µM
- growth at 10 µM (HOP-62 [11]): 29%
- growth at 0.1 µM (MDA-MB-435 [12]): 86%
- growth at 100 µM (UACC-62): 12%
- growth at 100 µM (MCF7 [13]): 9%
- growth at 0.1 µM (SK-OV-3): 86%
- Activity (MDA-MB-435 [14]): Active
- growth at 1 µM (NCI-H460): 91%
- growth at 0.01 µM (HL-60(TB)): 97%
- growth at 1 µM (OVCAR-8): 99%

Structure (SMILES): CCS/C(Nc1ccccc1)=C(\C#N)C(=O)Nc1ccc(OC)cc1
- GI50 (SW-620 [1]; read-out: GI50): 2.55 µM
- CC50 (SW-620 [1]; [15]): > 100 µM
- TGI (SW-620 [1]; read-out: TGI): > 100 µM
- GI50 (SW-620 [1]; read-out: pGI50 (converted)): 2.57 µM
- CC50 (SW-620 [1]; [16]): > 100 µM
- TGI (SW-620 [1]; read-out: pTGI): > 100 µM
- growth at 1 µM (CCRF-CEM): 64%
- growth at 0.1 µM (M14): 93%
- growth at 0.1 µM (UACC-257): 95%
- growth at 0.01 µM (CAKI-1): 90%
- growth at 10 µM (K562): 12%
- growth at 100 µM (ACHN): 17%
- growth at 1 µM (LOX IMVI): 89%
- growth at 0.1 µM (SK-MEL-2 [2]): 102%
- growth at 0.1 µM (HOP-62 [3]): 84%
- growth at 0.01 µM (A498): 91%
- growth at 10 µM (HT-29 [4]): 8%
- Activity (HL-60): Dose-dependent effect
- GI50 (HL-60): 2.87 µM
- growth at 1 µM (HT-29 [5]): 99%
- growth at 10 µM (OVCAR-4): 45%
- growth at 0.1 µM (HT-29 [6]): 105%
- growth at 0.1 µM (NCI-H23): 99%
- growth at 0.01 µM (SK-MEL-2 [7]): 106%
- growth at 0.1 µM (MCF7 [8]): 93%
- growth at 0.01 µM (MDA-MB-435 [9]): 100%
- growth at 10 µM (MOLT-4): 21%
- growth at 100 µM (SW-620 [10]): 14%
- GI50 (IGROV-1; read-out: GI50): 5.3 µM
- CC50 (IGROV-1; [15]): > 100 µM
- TGI (IGROV-1; read-out: TGI): > 100 µM
- GI50 (IGROV-1; read-out: pGI50 (converted)): 5.25 µM
- CC50 (IGROV-1; [16]): > 100 µM
- TGI (IGROV-1; read-out: pTGI): > 100 µM
- growth at 10 µM (HOP-62 [11]): 41%
- growth at 0.1 µM (MDA-MB-435 [12]): 91%
- growth at 100 µM (UACC-62): 6%
- growth at 100 µM (MCF7 [13]): 6%
- growth at 0.1 µM (SK-OV-3): 88%
- Activity (MDA-MB-435 [14]): Active
- growth at 1 µM (NCI-H460): 90%
- growth at 0.01 µM (HL-60(TB)): 96%
- growth at 1 µM (OVCAR-8): 98%
